For the experiment, the system named is TIMP-1. Nature of the experiment: Example 8 main study Luminex, LPS hPBMCs: TIMP-1. Format: cell-based, human. On the procedure: Human PBMCs were pretreated with YY-101, YDE-011, YDE-043 or reference compound; Xiidra® at various concentration (ranging from […] to 500 nM) for 2 h before stimulation. An equal volume of 0.5% DMSO was used as a vehicle control. Then, the cells were treated with LPS at 5 ug/ml, which was selected based on the pilot study. The supernatants from treated cells were harvested at 24 h and placed in a 96 well for Luminex cytokine & chemokine profiling using a Luminex 200 multiplex assay (Luminex; R&D system, USA).
The main study arm with triplicate wells per group in a 24-well plate: • 1. Blank • 2. PBMC: 0.5% DMSO • 3. PBMC+LPS (5 ug/ml) • 4. PBMC+YY-101 500 nM • 5. PBMC+YY-101 50 nM • 6. PBMC+YY-101 5 nM • 7. PBMC+YY-101 0.5 nM • 8. PBMC+LPS (5 ug/ml)+Xiidra® 500 nM • 9. PBMC+LPS (5 ug/ml)+Xiidra® 50 nM • 10. PBMC+LPS (5 ug/ml)+Xiidra® 5 nM • 11. PBMC+LPS (5 ug/ml)+Xiidra® 0.5 nM • 12. PBMC+LPS (5 ug/ml)+Xiidra® 0.05 nM • 13. PBMC+LPS (5 ug/ml)+Xiidra® 0.005 nM • 14. PBMC+LPS (5 ug/ml)+YY-101 500 nM • 15. PBMC+LPS (5 ug/ml)+YY-101 50 nM • 16. PBMC+LPS (5 ug/ml)+YY-101 5 nM • 17. PBMC+LPS (5 ug/ml)+YY-101 0.5 nM • 18. PBMC+LPS (5 ug/ml)+YY-101 0.05 nM • 19. PBMC+LPS (5 ug/ml)+YY-101 0.005 nM • 20. PBMC+LPS (5 ug/ml)+YDE-011 500 nM • 21. PBMC+LPS (5 ug/ml)+YDE-011 50 nM • 22. PBMC+LPS (5 ug/ml)+YDE-011 5 nM • 23. PBMC+LPS (5 ug/ml)+YDE-011 0.5 nM • 24. PBMC+LPS (5 ug/ml)+YDE-011 0.05 nM • 25. PBMC+LPS (5 ug/ml)+YDE-011 0.005 nM • 26. PBMC+LPS (5 ug/ml)+YDE-043 500 nM • 27. PBMC+LPS (5 ug/ml)+YDE-043 50 nM • 28. PBMC+LPS (5 ug/ml)+YDE-043 5 nM • 29. PBMC+LPS (5 ug/ml)+YDE-043 0.5 nM • 30. PBMC+LPS (5 ug/ml)+YDE-043 0.05 nM • 31. PBMC+LPS (5 ug/ml)+YDE-043 0.005 nM
Multiplex assay was used to measure 30 cytokines and chemokines. The 1:200 diluted cell supernatant and serial dilution of the standard were dispensed into a 96 well plate at 50 ul/well. Then, the pre-mixed cocktail of antibody-coated magnetic beads was dispensed at 50 ul/well and incubated at room temperature for 2 h in a horizontal orbital microplate shaker at 800±500 rpm. The beads were washed using a magnetic device to prevent loss. The biotin-antibody was dispensed in 50 ul of each well and incubated at room temperature for 1 h in a shaker at 800±500 rpm. After washing, streptavidin-PE was added at 50 ul/well and incubated at room temperature for 30 min in a shaker under the same conditions. Finally, after washing, wash buffer (100 ul/well) was added to the plate and incubated in a shaker for 2 min. The Luminex™ 200 setting were set according to the manufacturer's protocol. The data was calculated with a standard five-parameter logistic nonlinear regression analysis of the data (xPonent software 4.2, USA). Results were presented as concentration (ng/ml or pg/ml).

Where [1] appears, read: PBMC + LPS(5 ug/ml), test article 0.005 nM.
The mark [2] stands for this setting: PBMC + LPS(5 ug/ml), test article 0.05 nM.
Setting [3] is: PBMC + LPS(5 ug/ml), test article 0.5 nM.
[4] abbreviates: PBMC + LPS(5 ug/ml), test article 5 nM.
The mark [5] stands for this setting: PBMC + LPS(5 ug/ml), test article 50 nM.
[6] abbreviates: PBMC + LPS(5 ug/ml), test article 500 nM.
Setting [7] is: PBMC without LPS, test article 0.5 nM.
[8] abbreviates: PBMC without LPS, test article 5 nM.
[9] abbreviates: PBMC without LPS, test article 0.05 uM.
The mark [10] stands for this setting: PBMC without LPS, test article 50 nM.
The mark [11] stands for this setting: PBMC without LPS, test article 500 nM.

Molecules are shown by their SMILES. Values joined by “and” are separate entries in the source; they are usually repeats but may differ in a detail not shown here. Equal values may be shown once. Where a SMILES comes first, the peptide text is derived from it. [ ]: non-standard residue; d: D form. Hyp = O=C(O)[C@@H]1C[C@@H](O)CN1

In the case of `CC(C)C[C@H](NC(=O)CNC(=O)[C@H](CC(C)C)NC(=O)[C@H](CCC(N)=O)NC(=O)CNC(=O)[C@@H]1C[C@@H](O)CN1)C(=O)N[C@@H](C)C(=O)NCC(=O)N1CCC[C@H]1C(=O)N[C@@H](CCCCN)C(=O)O` [YDE-011] (H-[Hyp]GQLGLAGPK-OH), the “TIMP-1 Concentration (pg/ml), Mean” value reads like this: under setting [1], 4036.4 pg/mL; under setting [2], 4288.3 pg/mL; under setting [3], 4080.2 pg/mL; under setting [4], 4128.5 pg/mL; under setting [5], 4253.6 pg/mL; under setting [6], 3820.5 pg/mL. The “TIMP-1 Concentration (pg/ml), single replicates” value is 4259.2 pg/ml (2×) and 3590.9 pg/ml under setting [1]; 4414.6 pg/mL and 3590.9 pg/mL and 4859.3 pg/mL under setting [2]; 3590.9 pg/mL and 3935.4 pg/mL and 4714.4 pg/mL under setting [3]; 4859.3 pg/mL and 3935.4 pg/mL and 3590.9 pg/mL under setting [4]; 3935.4 pg/mL and 4259.2 pg/mL and 4566.3 pg/mL under setting [5]; 3935.4 pg/ml (2×) and 3590.9 pg/ml under setting [6].
For the compound `CC(C)C[C@H](NC(=O)CNC(=O)[C@H](CC(=O)O)NC(=O)[C@H](CCC(N)=O)NC(=O)CNC(=O)[C@@H]1C[C@@H](O)CN1)C(=O)N[C@@H](C)C(=O)NCC(=O)N1CCC[C@H]1C(=O)N[C@@H](CCCCN)C(=O)O` [YY-101] (H-[Hyp]GQDGLAGPK-OH; N-terminus and C-terminus assumed), the “TIMP-1 Concentration (pg/ml), Mean” value amounted to 3912.8 pg/mL under setting [1]; 3820.5 pg/mL under setting [2]; 4128.5 pg/mL under setting [3]; 3696.9 pg/mL under setting [4]; 3696.9 pg/mL under setting [5]; 3696.9 pg/mL under setting [6]. The “TIMP-1 Concentration (pg/ml), Mean” value under setting [7] worked out at 6580.9 pg/mL; the “TIMP-1 Concentration (pg/ml), Mean” value under setting [8] was 6228.8 pg/mL; the “TIMP-1 Concentration (pg/ml), Mean” value under setting [9] was found to be 8751.3 pg/mL; the “TIMP-1 Concentration (pg/ml), Mean” value under setting [10] was found to be 6928.9 pg/mL; the “TIMP-1 Concentration (pg/ml), Mean” value under setting [11] is 7209.9 pg/mL. In addition, the “TIMP-1 Concentration (pg/ml), single replicates” value is 4259.2 pg/ml (2×) and 3220.1 pg/ml under setting [1]; 3935.4 pg/ml (2×) and 3590.9 pg/ml under setting [2]; 3935.4 pg/mL and 3590.9 pg/mL and 4859.3 pg/mL under setting [3]; 3935.4 pg/ml (2×) and 3220.1 pg/ml under setting [4]; 3935.4 pg/ml (2×) and 3220.1 pg/ml under setting [5]; 3935.4 pg/ml (2×) and 3220.1 pg/ml under setting [6]. The “TIMP-1 Concentration (pg/ml), single replicates” value is 6173.1 pg/mL and 6988.8 pg/mL under setting [7]; 6531.0 pg/mL and 5926.6 pg/mL under setting [8]; 10402.5 pg/mL and 7100.2 pg/mL under setting [9]; 7210.4 pg/mL and 6647.4 pg/mL under setting [10]; 7100.2 pg/mL and 7319.6 pg/mL under setting [11].
Regarding `CC(C)C[C@H](NC(=O)[C@H](CCC(N)=O)NC(=O)CNC(=O)[C@@H]1C[C@@H](O)CN1)C(=O)NCC(=O)O` [YDE-043] (H-[Hyp]GQLG-OH; N-terminus and C-terminus assumed), the “TIMP-1 Concentration (pg/ml), Mean” value turned out to be 4681.6 pg/mL under setting [1]; 4088.2 pg/mL under setting [2]; 4203.1 pg/mL under setting [3]; 4463.9 pg/mL under setting [4]; 4351.3 pg/mL under setting [5]; 4299.5 pg/mL under setting [6]. The “TIMP-1 Concentration (pg/ml), single replicates” value is, setting by setting: under setting [1], 3935.4 pg/mL and 5543.0 pg/mL and 4566.3 pg/mL; under setting [2], 4259.2 pg/mL and 4414.6 pg/mL and 3590.9 pg/mL; under setting [3], 4259.2 pg/mL and 4414.6 pg/mL and 3935.4 pg/mL; under setting [4], 4566.3 pg/ml (2×) and 4259.2 pg/ml; under setting [5], 3935.4 pg/mL and 4859.3 pg/mL and 4259.2 pg/mL; under setting [6], 4566.3 pg/ml (2×) and 3766.0 pg/ml.

The values are drawn from US20230146455A1, “TREATMENT OF INFLAMMATORY DISEASES WITH PEPTIDES AND PHARMACEUTICAL COMPOSITIONS” (Yuyu Pharma, Inc., priority 2020, published 2023).
